Patent US11878955B1, “3,3′,3″-nitrilotris(1-(naphthalen-2-yloxy)propan-2-ol) as an eco-friendly insecticidal agent against Spodoptera littoralis (boisd.)” (priority 2023, dated 2024)
In brackets after ≈: the same amount, converted by molar mass.

Test system: Spodoptera littoralis larvae (2nd and 4th instars)
Assay: Insecticidal bioassay screening (castor leaf dip)
Assay type: in vivo
Conditions: for LC50 (ppm): after 72 h of treatment; for Toxic ratio: 72 h, fenoxycarb's LC50 / the compound's LC50 × 100
Procedure: Five concentrations (200, 100, 50, 25, 12.5 ppm) were designed for this synthetic compound and the reference fenoxycarb compound as the dynamic ingredients based on ppm via diluting the commercial formulation.
In this experiment, castor leaves are immersed in each of the previously prepared concentrations of the components for 10 seconds and then left to dry for 60 minutes. Larvae of the second and fourth instars of each checked strain are prepared with treated leaves in gauze-covered glass containers for 72 hrs. An untreated control is made in which leaves are dipped in triton x-100 and distilled water only. Then the preserved leaves were removed & fresh, untreated leaves were provided for 72 hours. Three replicates (10 larvae each) were checked for each concentration. Daily inspection was carried out for all treatments and mortality percentages were recorded 3 days (72 hours) after treatment. The average mortality percentage was corrected employing Abbott's formula. The corrected mortality rate for each of the previously synthesized compounds is statistically calculated according to Finney (1970). Through this rate, the corresponding concentration test lines (LDP lines) are assessed. Fifty and ninety percent mortality are determined, and the regression values for the checked products were previously evaluated.

## CCOC(=O)NCCOc1ccc(Oc2ccccc2)cc1 [Fenoxycarb, reference compound]
2nd instar larvae of S. littoralis
  LC50 (ppm): 2.73 ppm
2nd instar larvae
  Toxic ratio: 100
4th instar larvae of S. littoralis
  LC50 (ppm): 43.231 ppm
4th instar larvae
  Toxic ratio: 100
Spodoptera littoralis, foliar
  LC50: 2.73 µg/mL (≈ 9.06 µM)
